# Where two headings read alike, the source gives them in different places.
# Tested on: erythrocytes infected with 3D7 trophozoites
# Format: cell-based, Plasmodium falciparum
# Conditions: for Folate level, Log2 (treated vs control) / Geranylgeranyl pyrophosphate level, Log2 (treated vs control): sheet Log2; for Folate level, Log2 (treated vs control): medMz 440.132; for Geranylgeranyl pyrophosphate level, Log2 (treated vs control): medMz 449.186; for Ratio, Farnesyl diphosphate: metabolite Farnesyl diphosphate (medMz 381.123); for Ratio, Folate: metabolite Folate (medMz 440.132); for Ratio, Geranylgeranyl pyrophosphate: metabolite Geranylgeranyl pyrophosphate (medMz 449.186)
smiles,measurement,setting,value
COc1ccc2c(c1)OC(O)(C(F)(F)C(F)(F)F)CC2=O (stereo not shown) [MMV007839],NADH log2 ratio (+MMV007839/-MMV007839),"Av 6hr, 6 μM",-2.783
same,NADP+ log2 ratio (+MMV007839/-MMV007839),"Av 6hr, 6 μM",-0.3285
same,Octoluse Bisphosphate log2 ratio (+MMV007839/-MMV007839),"Av 6hr, 6 μM",0.9087
same,Ornithine log2 ratio (+MMV007839/-MMV007839),"Av 6hr, 6 μM",-0.4177
same,Orotate log2 ratio (+MMV007839/-MMV007839),"Av 6hr, 6 μM",-1.6355
same,Orotidine 5-phosphate log2 ratio (+MMV007839/-MMV007839),"Av 6hr, 6 μM",-1.249
same,Orotidine log2 ratio (+MMV007839/-MMV007839),"Av 6hr, 6 μM",-0.6749
same,PAEF log2 ratio (+MMV007839/-MMV007839),"Av 6hr, 6 μM",0.8061
same,PAVH log2 ratio (+MMV007839/-MMV007839),"Av 6hr, 6 μM",-0.07734
same,PD log2 ratio (+MMV007839/-MMV007839),"Av 6hr, 6 μM",1.197
same,PDAV log2 ratio (+MMV007839/-MMV007839),"Av 6hr, 6 μM",1.2
same,PE log2 ratio (+MMV007839/-MMV007839),"Av 6hr, 6 μM",1.699
same,PEE log2 ratio (+MMV007839/-MMV007839),"Av 6hr, 6 μM",1.042
same,PHF log2 ratio (+MMV007839/-MMV007839),"Av 6hr, 6 μM",0.9826
same,PPVQ log2 ratio (+MMV007839/-MMV007839),"Av 6hr, 6 μM",-0.2514
same,PVNF log2 ratio (+MMV007839/-MMV007839),"Av 6hr, 6 μM",0.6194
same,PVQ log2 ratio (+MMV007839/-MMV007839),"Av 6hr, 6 μM",1.502
same,PVQA log2 ratio (+MMV007839/-MMV007839),"Av 6hr, 6 μM",-0.1116
same,Pantothenate log2 ratio (+MMV007839/-MMV007839),"Av 6hr, 6 μM",-0.4384
same,Phenylalanine log2 ratio (+MMV007839/-MMV007839),"Av 6hr, 6 μM",0.1437
same,Phosphoenolpyruvate log2 ratio (+MMV007839/-MMV007839),"Av 6hr, 6 μM",0.09862
same,Pipecolate log2 ratio (+MMV007839/-MMV007839),"Av 6hr, 6 μM",1.035
same,Proline log2 ratio (+MMV007839/-MMV007839),"Av 6hr, 6 μM",0.2232
same,Pyridoxine log2 ratio (+MMV007839/-MMV007839),"Av 6hr, 6 μM",0.219
same,Pyruvate log2 ratio (+MMV007839/-MMV007839),"Av 6hr, 6 μM",2.1785
same,Ribose-5-phosphate log2 ratio (+MMV007839/-MMV007839),"Av 6hr, 6 μM",0.5462
same,S-Adenosyl-L-homocysteine log2 ratio (+MMV007839/-MMV007839),"Av 6hr, 6 μM",-0.1116
same,SDGLA log2 ratio (+MMV007839/-MMV007839),"Av 6hr, 6 μM",-0.7918
same,SFGD log2 ratio (+MMV007839/-MMV007839),"Av 6hr, 6 μM",-0.1482
same,Sedoheptoluse bisphosphate log2 ratio (+MMV007839/-MMV007839),"Av 6hr, 6 μM",-0.5568
same,Sedoheptulose-1/7-phosphate log2 ratio (+MMV007839/-MMV007839),"Av 6hr, 6 μM",0.1885
same,Serine log2 ratio (+MMV007839/-MMV007839),"Av 6hr, 6 μM",0.02139
same,Succinate log2 ratio (+MMV007839/-MMV007839),"Av 6hr, 6 μM",0.1816
same,Succinate semialdehyde log2 ratio (+MMV007839/-MMV007839),"Av 6hr, 6 μM",-0.438
same,TNVK log2 ratio (+MMV007839/-MMV007839),"Av 6hr, 6 μM",-0.1213
same,Threonine log2 ratio (+MMV007839/-MMV007839),"Av 6hr, 6 μM",0.6908
same,Tryptophan log2 ratio (+MMV007839/-MMV007839),"Av 6hr, 6 μM",-0.04867
same,Tyrosine log2 ratio (+MMV007839/-MMV007839),"Av 6hr, 6 μM",0.1841
same,UDP log2 ratio (+MMV007839/-MMV007839),"Av 6hr, 6 μM",-0.5016
same,UDP-N-acetyl-D-glucosamine log2 ratio (+MMV007839/-MMV007839),"Av 6hr, 6 μM",-0.184
same,UDP-glucose log2 ratio (+MMV007839/-MMV007839),"Av 6hr, 6 μM",0.0071
same,UMP log2 ratio (+MMV007839/-MMV007839),"Av 6hr, 6 μM",-0.08541
same,Uracil log2 ratio (+MMV007839/-MMV007839),"Av 6hr, 6 μM",-0.6376
same,Uric Acid log2 ratio (+MMV007839/-MMV007839),"Av 6hr, 6 μM",-0.1851
same,VD log2 ratio (+MMV007839/-MMV007839),"Av 6hr, 6 μM",1.833
same,Valine log2 ratio (+MMV007839/-MMV007839),"Av 6hr, 6 μM",0.1675
same,Xanthine log2 ratio (+MMV007839/-MMV007839),"Av 6hr, 6 μM",-0.5471
same,dADP log2 ratio (+MMV007839/-MMV007839),"Av 6hr, 6 μM",-0.4329
same,dATP log2 ratio (+MMV007839/-MMV007839),"Av 6hr, 6 μM",0.01926
same,dCDP log2 ratio (+MMV007839/-MMV007839),"Av 6hr, 6 μM",0.5589
same,dGMP log2 ratio (+MMV007839/-MMV007839),"Av 6hr, 6 μM",-0.355
same,dTMP log2 ratio (+MMV007839/-MMV007839),"Av 6hr, 6 μM",0.4667
same,dTTP log2 ratio (+MMV007839/-MMV007839),"Av 6hr, 6 μM",0.06317
same,dUMP log2 ratio (+MMV007839/-MMV007839),"Av 6hr, 6 μM",1.053
same,myo-Inositol log2 ratio (+MMV007839/-MMV007839),"Av 6hr, 6 μM",-0.254
same,sn-Glycerol 3-phosphate log2 ratio (+MMV007839/-MMV007839),"Av 6hr, 6 μM",1.275
same,sn-glycero-3-Phospho-1-inositol log2 ratio (+MMV007839/-MMV007839),"Av 6hr, 6 μM",0.1242
same,Hexose-phosphate log2 ratio (+MMV007839/-MMV007839),"Av 6hr, 6 μM, medRt 15.0954",-0.2639
same,6-Phospho-D-gluconate log2 ratio (+MMV007839/-MMV007839),"Av 6hr, 6 μM, medRt 16.8944",-0.736
same,Hexose-phosphate log2 ratio (+MMV007839/-MMV007839),"Av 6hr, 6 μM, medRt 17.0788",-1.183
same,6-Phospho-D-gluconate log2 ratio (+MMV007839/-MMV007839),"Av 6hr, 6 μM, medRt 17.4636",-0.3794
same,"Folate level, Log2 (treated vs control)","Exp1, 1hr",-0.2263
same,"Geranylgeranyl pyrophosphate level, Log2 (treated vs control)","Exp1, 1hr",-0.6569
same,"Folate level, Log2 (treated vs control)","Exp1, 3hr",-0.3477
same,"Geranylgeranyl pyrophosphate level, Log2 (treated vs control)","Exp1, 3hr",-0.8295
same,"Folate level, Log2 (treated vs control)","Exp1, 6hr",-0.6125
same,"Geranylgeranyl pyrophosphate level, Log2 (treated vs control)","Exp1, 6hr",-0.9068
same,"Folate level, Log2 (treated vs control)","Exp2, 1hr",-0.1779
same,"Geranylgeranyl pyrophosphate level, Log2 (treated vs control)","Exp2, 1hr",-0.5207
same,"Folate level, Log2 (treated vs control)","Exp2, 3hr",-0.4245
same,"Geranylgeranyl pyrophosphate level, Log2 (treated vs control)","Exp2, 3hr",-0.4872
same,"Folate level, Log2 (treated vs control)","Exp2, 6hr",-0.3923
same,"Geranylgeranyl pyrophosphate level, Log2 (treated vs control)","Exp2, 6hr",-0.5435
same,"Folate level, Log2 (treated vs control)","Exp3, 1hr",-0.2907
same,"Geranylgeranyl pyrophosphate level, Log2 (treated vs control)","Exp3, 1hr",-0.5583
same,"Folate level, Log2 (treated vs control)","Exp3, 3hr",-0.3083
same,"Geranylgeranyl pyrophosphate level, Log2 (treated vs control)","Exp3, 3hr",-0.7313
same,"Folate level, Log2 (treated vs control)","Exp3, 6hr",-0.4777
same,"Geranylgeranyl pyrophosphate level, Log2 (treated vs control)","Exp3, 6hr",-0.686
same,"Ratio, Farnesyl diphosphate",Exp1_1hr,1.012
same,"Ratio, Farnesyl diphosphate",Exp1_3hr,0.9128
same,"Ratio, Farnesyl diphosphate",Exp1_6hr,0.7497
same,"Ratio, Farnesyl diphosphate",Exp2_1hr,1.018
same,"Ratio, Farnesyl diphosphate",Exp2_3hr,1.006
same,"Ratio, Farnesyl diphosphate",Exp2_6hr,0.9903
same,"Ratio, Farnesyl diphosphate",Exp3_1hr,0.9698
same,"Ratio, Farnesyl diphosphate",Exp3_3hr,1
same,"Ratio, Farnesyl diphosphate",Exp3_6hr,0.7551
same,"Ratio, Folate",Exp1_1hr,0.8548
same,"Ratio, Folate",Exp1_3hr,0.7858
same,"Ratio, Folate",Exp1_6hr,0.6541
same,"Ratio, Folate",Exp2_1hr,0.884
same,"Ratio, Folate",Exp2_3hr,0.7451
same,"Ratio, Folate",Exp2_6hr,0.7619
same,"Ratio, Folate",Exp3_1hr,0.8175
same,"Ratio, Folate",Exp3_3hr,0.8076
same,"Ratio, Folate",Exp3_6hr,0.7181
same,"Ratio, Geranylgeranyl pyrophosphate",Exp1_1hr,0.6342
same,"Ratio, Geranylgeranyl pyrophosphate",Exp1_3hr,0.5627
same,"Ratio, Geranylgeranyl pyrophosphate",Exp1_6hr,0.5334
same,"Ratio, Geranylgeranyl pyrophosphate",Exp2_1hr,0.697
same,"Ratio, Geranylgeranyl pyrophosphate",Exp2_3hr,0.7134
same,"Ratio, Geranylgeranyl pyrophosphate",Exp2_6hr,0.6861
same,"Ratio, Geranylgeranyl pyrophosphate",Exp3_1hr,0.6791
same,"Ratio, Geranylgeranyl pyrophosphate",Exp3_3hr,0.6023
same,"Ratio, Geranylgeranyl pyrophosphate",Exp3_6hr,0.6216
